Entries after “also recorded” stand apart in the source; their conditions may differ. Where two headings read alike, the source gives them in different places. One block for each compound: values may come before it.
What was measured:
[1] = target: T1, Tdp1 (Homo sapiens, UniProt Q9NUW8); conditions: cited from earlier work
T1 construct: made in house; host or cells: Escherichia coli

[2] = tested on: Lewis lung carcinoma; parameters: method as in PMID 30903487; conditions: Lewis lung carcinoma models; cited from earlier work
[3] = target: T1, Tdp1; experiment: Real-time detection of Tdp1 activity (5'-FAM/3'-BHQ1 oligonucleotide biosensor); assay type: biochemical; conditions: 1.5 nM Tdp1, 50 nM oligonucleotide substrate, 26 °C
How it was run: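 Recombinant human Tdp1 (E. coli-expressed, 1.5 nM) with 50 nM 16-mer ssDNA 5'-FAM/3'-BHQ1 biosensor in 50 mM Tris-HCl, 50 mM NaCl, 7 mM β-mercaptoethanol, 26 °C; fluorescence (Ex485/Em520) read each minute. Inhibition from linear-phase slope (0–7 min) vs 1.5% DMSO control; IC50 from six-point curves, ≥2 independent experiments.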

[4] = target: T2, recombinant Tdp1 (residues 149–608) (Homo sapiens, UniProt Q9NUW8); experiment: Intrinsic tryptophan fluorescence quenching binding assay; conditions: 10 µM Tdp1, 20 mM Tris, 250 mM NaCl, pH 8; triplicate
T2 construct: recombinant Tdp1 (residues 149–608) was obtained from GenScript; host or cells: E. coli BL21(DE3)
T2 sequence (Q9NUW8 149-608): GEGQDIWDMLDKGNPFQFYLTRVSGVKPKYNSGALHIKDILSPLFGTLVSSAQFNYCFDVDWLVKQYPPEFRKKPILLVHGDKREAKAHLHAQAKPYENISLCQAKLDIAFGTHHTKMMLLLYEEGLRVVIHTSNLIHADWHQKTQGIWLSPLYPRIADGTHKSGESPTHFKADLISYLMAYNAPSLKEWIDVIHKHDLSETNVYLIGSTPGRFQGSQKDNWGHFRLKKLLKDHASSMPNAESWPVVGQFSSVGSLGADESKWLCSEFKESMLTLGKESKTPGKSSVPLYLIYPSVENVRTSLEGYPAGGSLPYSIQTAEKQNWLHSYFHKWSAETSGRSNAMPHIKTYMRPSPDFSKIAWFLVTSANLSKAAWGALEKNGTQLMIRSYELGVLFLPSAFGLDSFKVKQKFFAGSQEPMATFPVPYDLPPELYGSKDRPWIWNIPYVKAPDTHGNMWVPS
Method: The binding of the synthesized compounds to recombinant Tdp1 was also tested (Table 1 and Table 2) by using an intrinsic tryptophan fluorescence quenching assay. […] As our compounds are aromatic in nature, there is a possibility that they may bind to both the active site as well as non-specifically to the DNA/peptide binding pockets. Nonetheless, our results confirmed that the compounds were indeed binders of Tdp1, thus complementing our inhibition data.
pET-28a(+) plasmid encoding recombinant Tdp1 (residues 149–608) was obtained from GenScript. E. coli BL21(DE3) was used for recombinant protein production. Protein production was induced with 1 mM IPTG at 28 °C with overnight incubation. Tdp1 was purified using affinity and size exclusion chromatography. Fluorescence was measured using a PerkinElmer EnSpire Multimode Reader. Tdp1 concentration was 10 μM with varying compound concentrations. The buffer was 20 mM Tris and 250 mM NaCl (pH 8). The excitation wavelength was 280 nm and intrinsic fluorescence was measured at 350 nm. Control experiments with Tdp1 or the compound on its own were also conducted. Background fluorescence arising from the compounds was subtracted from the final spectrum. The total volume per well was 30 μL. The dissociation constant (KD) was calculated using Equation (1), which takes non-specific binding into account. y = Bmaxx/(KD + x) + Nsx(1) where y denotes the changes in fluorescence intensity; x denotes the concentration of the compounds; Bmax denotes the maximum changes in fluorescence intensity; and Ns is a scaling factor for non-specific binding. Experiments were conducted in triplicate.

[5] = MTT test, intrinsic cytotoxicity; assay type: cell-based; conditions: human, HeLa cells (cervical carcinoma), compound alone
From the text: First, we studied the intrinsic cytotoxicity of the compounds against HeLa cells (cervical carcinoma). For experiments on cells, we selected compounds which combined high inhibitory activity with good chemical accessibility. The MTT test data are shown in Figure 4 for compounds from both the heteroarylidene-hydrazinotiazole and arylidene-hydrazinotiazole subclasses. […] Heteroarylidene-hydrazinothiazole derivatives (+)- and (−)-16f, containing a bromothiophene residue, also have low toxicity (CC50 about 80 µM), while the 16d pair, containing a nitro group that is a known toxicophore, suppressed cell growth at a concentration of 20 µM.
Analysis of the intrinsic toxicity of the compounds was examined against human cell line HeLa (cervical cancer) using a standard MTT test by colorimetric measurement of the amount of formazan converted from 3-(4,5-dimethylthiazol-2-yl)-2,5-diphenyl-2H-tetrazolium bromide in cells exposed to the compounds. […] After formation of a 30–50% monolayer, tested compounds were added to the medium (the volume of added reagents was 1/100 of the total volume of the culture medium, the amount of DMSO was 1% of the final volume), and the cell culture was monitored for three days. […]

[6] = tested on: HeLa cells; experiment: MTT test, combination of Tdp1 inhibitors with topotecan; assay type: cell-based, human
[7] = tested on: Tdp2; parameters: method as in PMID 28418653; conditions: cited from earlier work
[8] = tested on: Top1; parameters: method as in PMID 28418653; conditions: cited from earlier work
[9] = tested on: mice; conditions: ref Registry of Toxic Effects of Chemical Substances, cited from earlier work

T1 sequence (Q9NUW8 whole entry): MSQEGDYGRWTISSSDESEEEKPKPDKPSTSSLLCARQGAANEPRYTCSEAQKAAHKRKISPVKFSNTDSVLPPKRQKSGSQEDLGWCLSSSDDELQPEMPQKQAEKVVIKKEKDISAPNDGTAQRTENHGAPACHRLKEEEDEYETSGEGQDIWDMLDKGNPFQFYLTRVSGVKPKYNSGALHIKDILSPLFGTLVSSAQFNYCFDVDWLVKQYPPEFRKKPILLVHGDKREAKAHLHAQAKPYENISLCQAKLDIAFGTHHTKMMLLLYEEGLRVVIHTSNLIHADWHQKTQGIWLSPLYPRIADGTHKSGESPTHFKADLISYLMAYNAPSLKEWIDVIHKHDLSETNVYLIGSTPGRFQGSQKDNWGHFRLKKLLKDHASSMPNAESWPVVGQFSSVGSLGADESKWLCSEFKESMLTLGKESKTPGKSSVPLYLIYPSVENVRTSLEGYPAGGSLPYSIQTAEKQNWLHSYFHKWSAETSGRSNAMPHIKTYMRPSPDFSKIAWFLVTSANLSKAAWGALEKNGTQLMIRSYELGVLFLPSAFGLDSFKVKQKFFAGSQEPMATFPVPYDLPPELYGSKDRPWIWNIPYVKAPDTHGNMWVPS

Compound: CC1(C)[C@H]2CC=C(COc3ccc4c5c(c(=O)oc4c3)CCC5)[C@@H]1C2 [compound 7]
IC50 ([1]; read-out: IC50): 0.67 µM

Compound: CCCCN(CCCC)CC(=O)Nc1cc(C(F)(F)F)cc2c1SSSSS2 [compound 2]
IC50 ([1]; read-out: IC50): 0.2 µM

Compound: CC(=O)c1c(O)c(C)c(O)c2c1OC1=CC(=O)/C(=C(/C)NCCCc3cc(C(C)(C)C)c(O)c(C(C)(C)C)c3)C(=O)[C@@]12C [9b]
metastasis growth [2]: reduces metastasis growth

IC50 [3]: 0.088 ± 0.003 µM
Kd [4]: 95 ± 11 µM
Compound: CC(=O)C1=C(O)C=C2Oc3c(-c4csc(N/N=C/c5ccc(Br)s5)n4)c(O)c(C)c(O)c3[C@@]2(C)C1=O [(+)-16f, (2R)-4-Acetyl-5,11,13-trihydroxy-2,12-dimethyl-10-{2-[(E)-2-[(5-bromothiophen-2-yl)methylidene]hydrazin-1-yl]-1,3-thiazol-4-yl}-8-oxatricyclo[7.4.0.0^2,7]trideca-1(9),4,6,10,12-pentaen-3-one]
CC50 at 3 days [5]: ~80 µM

IC50 [3]: 0.026 ± 0.004 µM
Kd [4]: 131 ± 15 µM
Compound: COc1ccc(/C=N/Nc2nc(-c3c(O)c(C)c(O)c4c3OC3=CC(O)=C(C(C)=O)C(=O)[C@@]34C)cs2)cc1COc1cccc(F)c1 [(+)-17b, (2R)-4-Acetyl-10-{2-[(E)-2-({3-[(3-fluorophenoxy)methyl]-4-methoxyphenyl}methylidene)hydrazin-1-yl]-1,3-thiazol-4-yl}-5,11,13-trihydroxy-2,12-dimethyl-8-oxatricyclo[7.4.0.0^2,7]trideca-1(9),4,6,10,12-pentaen-3-one]
effect of the order of administration on the synergistic effect with topotecan ([6]; 30 minutes between additions): the simultaneous administration of drugs reduced the synergistic effect; also recorded: led to worse results when compared with simultaneous administration

Compound: CC[C@@]1(O)C(=O)OCc2c1cc1n(c2=O)Cc2cc3c(CN(C)C)c(O)ccc3nc2-1 [topotecan, reference compound]
CC50 ([6]; Homo sapiens, read-out: CC50 of topotecan alone): 6 µM

IC50 [3]: 0.043 ± 0.001 µM
Kd [4]: 148 ± 9 µM
Compound: CC(=O)C1=C(O)C=C2Oc3c(-c4csc(N/N=C/c5ccc(Br)s5)n4)c(O)c(C)c(O)c3[C@]2(C)C1=O [(−)-16f, (2S)-4-Acetyl-5,11,13-trihydroxy-2,12-dimethyl-10-{2-[(E)-2-[(5-bromothiophen-2-yl)methylidene]hydrazin-1-yl]-1,3-thiazol-4-yl}-8-oxatricyclo[7.4.0.0^2,7]trideca-1(9),4,6,10,12-pentaen-3-one]
CC50 at 3 days [5]: ~80 µM

Compound: COc1cnc2c(c1)C(=O)c1c-2n(CCCNC2=NCCS2)c(=O)c2cc([N+](=O)[O-])ccc12 [compound 4]
IC50 ([1]; read-out: IC50 (Tdp1)): 1 to 12 µM
IC50 [7]: 12 to 37 µM
IC50 [8]: < 1 µM

Compound: 2,6-diacetyl-7,9-dihydroxy-8,9b-dimethyl-1,3(2H,9bH)-dibenzo-furandione [Usnic acid]
LD50 ([9]; mice): 838 mg/kg
toxicity class [9]: class III toxicity (moderately toxic)

IC50 [3]: 0.026 ± 0.008 µM
Kd [4]: 212 ± 25 µM
Compound: COc1ccc(/C=N/Nc2nc(-c3c(O)c(C)c(O)c4c3OC3=CC(O)=C(C(C)=O)C(=O)[C@@]34C)cs2)cc1COc1ccc(F)cc1 [(+)-17a, (2R)-4-Acetyl-10-{2-[(E)-2-({3-[(4-fluorophenoxy)methyl]-4-methoxyphenyl}methylidene)hydrazin-1-yl]-1,3-thiazol-4-yl}-5,11,13-trihydroxy-2,12-dimethyl-8-oxatricyclo[7.4.0.0^2,7]trideca-1(9),4,6,10,12-pentaen-3-one]
